Reference: US11306117B2, “Whitening composition containing novel quercetin-based compound” (AMOREPACIFIC CORPORATION, priority 2017, dated 2022)

Tests used:
[1] = test system: Mel-Ab cell line; experiment: Inhibition of melanogenesis in Mel-Ab cells (method of Dooley); format: cell-based, C57BL/6; conditions: melanin by absorbance at 400 nm after 5 days
Protocol: The effects of New Materials 31 and 32 on inhibiting melanogenesis were compared with Kojic acids which have been known to have an excellent skin whitening effect, and measured.
Specifically, the degree of melanogenesis in cells was measured by a method of Dooley. As the cell line, Mel-Ab cell line (Falcon, U.S.A.) derived from a skin pigment of C57BL/6 was used. Culturing was made under the condition of 37° C., 5% CO2 of a DMEM medium containing 10% placenta serum, 100 nM 12-O-tetradecanoylphorbol-13-acetate, and 1 nM Cholera Toxin. The test materials were treated in the manner where the cultured Mel-Ab cell was isolated with 0.25% trypsin-EDTA, and inoculated again with the same number (1×10^5 cells/well) in the 24-well plate, and then the medium was replaced with a medium containing the test materials for two days from the second day. As the test materials, 5 ppm, 10 ppm, 25 ppm and 50 ppm of New Materials 31 and 32, 25 ppm, 50 ppm and 100 ppm of Kojic acids and DMSO (control) were used. After 5 days, the test materials were treated with 1N-NaOH to dissolve melanin contained in the cell, and the amount of melanin was measured by measuring absorbance at 400 nm. The concentration (IC50) of the material necessary for reducing melanogenesis of melanocyte by half was calculated, and the results are shown in following Table 4.

[2] = target: mushroom tyrosinase; experiment: Inhibition of tyrosinase activity; format: biochemical; conditions: L-tyrosine, 37° C., 20 minutes, absorbance 490 nm
Protocol: The effect of New Materials 31 and 32 on inhibiting tyrosinase activity was evaluated.
Specifically, tyrosinase and tyrosine derived from mushroom were obtained from Sigma Chemical. Together with 150 μl of 0.1 M phosphate buffer (pH 6.5), 8 μl of mushroom tyrosinase (2,100 unit/ml) and 0.05 M concentration of L-tyrosine, arbutin and New Materials 31 and 32 were treated at the concentrations of following Table 3, respectively. The tyrosinase activity was evaluated by performing the enzyme reaction at 37° C. for 20 minutes and then measuring absorbance at 490 nm using a microplate reader (Bio-Rad 3550, Richmond, Calif., U.S.A.).

| SMILES | IC50 inhibiting melanogenesis [1] | IC50 inhibiting tyrosinase activity [2] |
| --- | --- | --- |
| C[C@@H]1O[C@@H](OC[C@H]2O[C@@H](Oc3c(-c4ccc(O)c(O)c4)oc4cc(O)cc(O)c4c3=O)[C@H](O)[C@@H](OC(=O)/C=C/c3ccc(O)cc3)[C@@H]2O)[C@H](O)[C@H](O[C@@H]2O[C@H](CO)[C@@H](O)[C@H](O)[C@H]2O)[C@H]1O [New Material 31, quercetin3-O-[3-O″-(E)-p-coumaroyl][β-D-glucopyranosyl-(1→3)-O-α-L-rhamnopyranosyl-(1→6)-O-β-D-glucopyranoside]] | 23.5 ppm | 16 ppm |
| C[C@@H]1O[C@@H](OC[C@H]2O[C@@H](Oc3c(-c4ccc(O)c(O)c4)oc4cc(O)cc(O)c4c3=O)[C@H](O)[C@@H](OC(=O)/C=C/c3ccc(O)cc3)[C@@H]2O)[C@H](O)[C@H](O)[C@H]1O [New Material 32, quercetin3-O-[3-O″-(E)-p-coumaroyl][α-L-rhamnopyranosyl-(1→6)-O-β-D-glucopyranoside]] | 23.5 ppm | 19 ppm |
